Measurements published in patent US9655865B2, “Therapeutic treatment for metabolic syndrome, type 2 diabetes, obesity, or prediabetes” (VeroScience, LLC, priority 2002, dated 2017).

Legend:
Format in all cases: in vivo
[1] = system: obese, diabetic female ob/ob mice; assay: GBR 12909 and clonidine, alone and combined, 14 days in ob/ob mice with mild diabetes (Example 2); settings: GBR 12909 about 20 mg/kg, clonidine about 0.1 mg/kg, once daily 14 days, controls 202+/−41
Method: GBR 12909 is a specific dopamine reuptake inhibitor. Its use can increase the dopaminergic to noradrenergic neuronal activity in the central nervous system. However, by combining GBR 12909 with clonidine, a noradrenergic alpha 2 receptor agonist with preferential affinity for presynaptic alpha 2 sites, it is possible to further increase the dopamine to noradrenaline neuronal activity ratio in the central nervous system. A study was conducted to determine the interactive effects of GBR 12909 and clonidine on blood glucose level in ob/ob mice.
Obese, diabetic female ob/ob mice (body weight of approximately 28 g) with mild diabetes were maintained on 14 hour daily photoperiods, housed one per cage and allowed to feed ad libitum. Different groups of these animals were randomized to once daily treatment with either a specific dopamine reuptake inhibitor, GBR 12909 at an approximate dose of 20 mg/kg body weight (n=4), or clonidine at an approximate dose of 0.1 mg/kg (n=5), these same dosages of GBR 12909 plus clonidine (n=3), or vehicle (control group; n=5-7) for a 14 day period. On the fifteenth day of the study and approximately 24 hours after the final treatment animals were sacrificed and blood samples were obtained for the analyses of blood glucose levels.

[2] = system: male mice fed a high fat diet; assay: GBR versus bupropion in high fat diet mice (Example 11)
Method: The effect of increasing central dopamine neuronal activity versus increasing central dopamine plus norepinephrine neuronal activity on body fat, blood glucose, plasma insulin, and insulin sensitivity was studied in male mice fed a high fat diet from 4 weeks of age until 24 weeks of age. These mice were maintained on this high fat diet while treated with either GBR (20 mg/kg) (a selective dopamine reuptake inhibitor) or bupropion (20 mg/kg) (a dopamine and norepinpehrine reuptake inhibitor) at doses that approximate their 50% maximal effective dose for these functions in vivo in rodents.

[3] = system: obese, diabetic mice (ob/ob strain); assay: GBR 12909 once daily for 14 days in obese, diabetic ob/ob mice (Example 1); settings: 30 mg/kg once daily 14 days
Method: GBR 12909 (1-(2-[bis(4-Fluorophenyl)methoxy]ethyl)-4-(3-phenylpropyl)piperazine dihydrochloride) is a specific dopamine reuptake inhibitor. Systemic administration of GBR 12909 can increase the dopaminergic to noradrenergic neuronal activity in the central nervous system. A study was conducted to determine the effects of GBR 12909 upon blood glucose and plasma free fatty acid levels in obese, diabetic mice (ob/ob strain). The ob/ob mouse is hyperphagic, obese, insulin resistant, diabetic and dyslipidemic due to the absence of functional leptin as a result of a mutation in this gene. Starvation or calorie restriction of these mice leads to increases in plasma free fatty acid levels that can function over the long term to worsen diabetes.
Different groups of obese, diabetic female (ob/ob) mice (body weight of approximately 33 g) maintained on 12 hour daily photoperiods, housed one per cage and allowed to feed ad libitum were randomized to once daily treatment with either a specific dopamine reuptake inhibitor, GBR 12909 at a dose of 30 mg/kg body weight (n=5-7) or vehicle (control group; n=5-7) for a 14 day period. On the fifteenth day of the study and approximately 24 hours after the final treatment animals were sacrificed and blood samples were obtained for the analyses of blood glucose and plasma free fatty acid and triglyceride levels.

[4] = system: Female mice fed a high fat diet for 20 weeks; assay: GBR 12909 and FA, alone and combined, 14 days in high fat diet mice (Example 9); settings: for body weight: 2 weeks treatment, normal weight for age matched controls=28 grams, FIG. 15; for plasma insulin levels: compared to lean controls, FIG. 12
Method: Female mice at 4 weeks of age were fed a high fat diet for 20 weeks to induce diabetes and insulin resistance and continued on such diet while treated for 14 days with either GBR 12909 (10 mg/kg), FA (15 mg/kg), GBR 12909 (10 mg/kg) plus FA (15 mg/kg), or vehicle and sacrificed after 14 days of treatment for the analyses of body fat, blood glucose, plasma insulin, and plasma nitric oxide levels. The composite of body fat store level, blood glucose and plasma insulin was reduced the greatest in the GBR/FA group and by a magnitude more than additive of the individual GBR and FA groups combined. Only the GBR/FA group normalized plasma insulin levels. […] This effect was not observed with either GBR or FA treatments alone.

[5] = system: high fat fed, hypertensive SHR rats; assay: Quinelorane and fusaric acid, alone and combined, in high fat fed hypertensive SHR rats (Example 5); settings: SHR rats on high fat diet; for change from baseline body weight (weight loss): FA 12.5 mg/kg, FIGS. 1 and 2; for blood glucose: FIG. 6
Method: Male SHR rats were maintained on 14 hour daily photoperiods and fed a high fat diet (60% of energy from fat; 5.24 kcal/gram weight) for 3 weeks and then divided into different groups and treated with either quinelorane (Q; a dopamine D2/D3 mixed receptor agonist) (0.075 mg/kg), fusaric acid (FA; a dopamine beta hydroxylase inhibitor) (12.5 mg/kg), quinelorane (0.075 mg/kg) plus FA (Q/FA) (12.5 mg/kg), or vehicle at 13 hours after light onset for 17 days. The doses of Q and FA were set at less than half maximal to effect central dopamine receptor binding functions and dopamine beta hydroxylase activity, respectively. […] Blood pressure measurements were taken at 14 days of treatment and animals were sacrificed at 18 days of treatment for analyses of body fat and humoral factors and metabolites. […] Respecting blood glucose, although both Q and FA reduced glucose level relative to vehicle, only the Q/FA regimen normalized blood glucose in these animals relative to vehicle (FIG. 6).

[6] = system: obese, diabetic female ob/ob mice; assay: Fusaric acid and SKF 38393, alone and combined, 14 days in ob/ob mice (Example 4); settings: fusaric acid 15 mg/kg, SKF 38393 10 mg/kg; for retroperitoneal fat pad weight / plasma triglyceride level: 14 days; for retroperitoneal fat pad weight: control 727+/−25; for plasma triglyceride level: controls 155+/−15; for blood glucose: once daily 14 days, controls 380+/−30
Method: Fusaric acid is a dopamine beta hydroxylase inhibitor that reduces noradrenaline synthesis in noradrenergic neurons. It is not present in dopaminergic neurons and thus exerts no such effect there. SKF38393 is a post-synaptic dopamine D1 receptor agonist with no marked influence on noradrenergic neurons. A study was conducted to determine the interactive effects of fusaric acid plus SKF 38393 on body fat store levels, and blood glucose and plasma triglyceride levels in ob/ob mice. The ob/ob mouse is hyperphagic, obese, insulin resistant, diabetic and dyslipidemic due to the absence of functional leptin as a result of a mutation in this gene.
Obese, diabetic female ob/ob mice (body weight of approximately 33 g) maintained on 14 hour daily photoperiods, housed one per cage and allowed to feed ad libitum were randomized to once daily treatment with either fusaric acid (15 mg/kg; n=6-8), SKF 38393 (10 mg/kg; n=6-8), both fusaric acid (15 mg/kg) and SKF 38393 (10 mg/kg) (n=6-8), or vehicle (control group; n=6-8) for a 14 day period. On the fifteenth day of the study and approximately 24 hours after the final treatment animals were sacrificed and blood samples were obtained for the analyses of blood glucose, plasma free fatty acid and triglyceride levels. Relative to controls, fusaric acid raised blood glucose from 380+/−30 mg/dl to 430+/−30 mg/dl and SKF 38393 reduced blood glucose to 290+/−55 mg/dl. However, fusaric acid plus SKF 38393 reduced blood glucose to 180+/−20 mg/dl. […] Neither fusaric acid nor SKF 38393 had any effect on retroperitoneal fat pad weight (735+/−43 mg and 735+/−50 mg, respectively versus control value of 727+/−25 mg) however, the combination of fusaric acid plus SKF 38393 reduced retroperitoneal fat pad weight to 680+/−25 mg.

[7] = system: obese, diabetic female ob/ob mice; assay: Amphetamine with or without bromocriptine, 14 days in ob/ob mice (Example 3); settings: amphetamine 3 mg/kg
Text: Amphetamine is a selective presynaptic dopamine release enhancer. It also acts as a presynaptic noradrenergic release enhancer but at higher dosages that will counter the effect of the dopamine reuptake inhibition activity to improve metabolism. However, addition of a dopamine D2 receptor agonist will act to reduce any amphetamine-induced increase in synaptic noradrenaline level and therefore should produce a more pronounced desired effect on metabolic disease than amphetamine or the D2 receptor agonist alone. A study was conducted to determine the effects of low dose amphetamine (3 mg/kg) with or without the dopamine D2 receptor agonist bromocriptine (5-<10 mg/kg dose) upon body weight gain, blood glucose, plasma free fatty acid and triglyceride levels in obese, diabetic mice (ob/ob strain). […] The ob/ob mouse is hyperphagic, obese, insulin resistant, diabetic and dyslipidemic due to the absence of functional leptin as a result of a mutation in this gene. Starvation or calorie restriction of these mice leads to increases in plasma free fatty acid levels that can function over the long term to worsen diabetes.
On the fifteenth day of the study and approximately 24 hours after the final treatment animals were sacrificed and blood samples were obtained for the analyses of blood glucose, plasma free fatty acid and triglyceride levels.

[8] = system: Female C57 Black mice fed a high simple sugar/moderate fat diet (western diet); assay: GBR 12909, FA, clonidine and combinations in C57 Black mice on western diet, body fat (Example 6); settings: GBR 25 mg/kg, FA 10 mg/kg, clonidine 0.075 mg/kg, 14 days, FIG. 7
[9] = system: Female obese diabetic mice (ob/ob strain); assay: Bupropion and FA, alone and combined, 14 days in ob/ob mice (Example 7); settings: bupropion 40 mg/kg, FA 10 mg/kg, FIG. 9
Method: Female obese diabetic mice (ob/ob strain) at 6 weeks of age were fed standard rodent chow and different groups of animals (n=5-7/group) were treated with bupropion (40 mg/kg), FA (10 mg/kg), bupropion (40 mg/kg) plus FA (10 mg/kg), or vehicle for 14 days and then sacrificed for the analyses of blood glucose and body fat store level. […] Moreover, these reductions were more than additive in magnitude relative to the effects of the individual compounds combined.

[10] = GBR 12909 10 mg/kg, FA 15 mg/kg, 14 days
[11] = relative to vehicle, sacrifice at 18 days

**Q.** With Cl.Cl.Fc1ccc(C(OCCN2CCN(CCCc3ccccc3)CC2)c2ccc(F)cc2)cc1 [GBR 12909, 1-(2-[bis(4-Fluorophenyl)methoxy]ethyl)-4-(3-phenylpropyl)piperazine dihydrochloride] as the compound, how does the blood glucose [1] read?
**A.** 221 ± 31 mg/dL

**Q.** What about the “body fat (intraabdominal fat pad)” value ([2]; 20 mg/kg, compared to vehicle and Bupropion, FIG. 17) of the same compound?
**A.** significantly reduced

**Q.** What about the HOMA-IR values ([2]; 20 mg/kg, compared to vehicle and Bupropion, FIG. 19) of the same compound?
**A.** significantly reduced

**Q.** What about the blood glucose ([2]; 20 mg/kg, relative to vehicle and Bupropion, FIG. 18) of the same compound?
**A.** significantly reduced

**Q.** What about the “reduction of plasma insulin compared with bupropion” value ([2]; equal dose 20 mg/kg) of the same compound?
**A.** much more effective

**Q.** What about the “reduction of plasma triglyceride level relative to controls” value [3] of the same compound?
**A.** approximately 32%

**Q.** What about the blood glucose ([3]; about 24 h after final treatment, controls 455+/−50) of the same compound?
**A.** 145 ± 25 mg/dL

**Q.** What about the final body weight ([3]; controls 42+/−2) of the same compound?
**A.** 28 ± 0.5 g

**Q.** And the “plasma free fatty acid levels” value ([3]; controls 780+/−40)?
**A.** 450 ± 20 µM

**Q.** What about the body weight [4] of the same compound?
**A.** not observed

**Q.** What about the blood glucose ([4]; GBR 12909 10 mg/kg, FA 15 mg/kg, 14 days, FIG. 11) of the same compound?
**A.** no significant effect

**Q.** What about the plasma insulin levels [4, 10] of the same compound?
**A.** significantly higher

**Q.** What does the source list for CCCN1CCC[C@@H]2Cc3nc(N)ncc3C[C@H]21 [Q]?
**A.** desensitization to the effects on weight loss ([5]; Q 0.075 mg/kg, 17 days): exhibited desensitization; change from baseline body weight (weight loss) ([5]; Q 0.075 mg/kg, 17 days): modest if any effects; blood glucose ([5]; relative to vehicle): reduced; plasma endothelin-1 (endothelin 1-21 fragment) [5, 11]: no significant effect; plasma nitric oxide [5, 11]: no significant effect

**Q.** Cl.Oc1cc2c(cc1O)C(c1ccccc1)CNCC2 (centres unmarked) [SKF 38393, 1-phenyl-7,8-dihydroxy-2,3,4,5-tetrahydro-1H-3-benzazepine hydrochloride] was tested. Which “retroperitoneal fat pad weight” value [6] did it give?
**A.** 735 ± 50 mg

**Q.** What about the plasma triglyceride level [6] of the same compound?
**A.** 130 ± 7 mg/dL

**Q.** And the blood glucose [6]?
**A.** 290 ± 55 mg/dL

**Q.** Which “plasma free fatty acid levels” value ([7]; 14 days, controls 900+/−100) does the source give for CC(N)Cc1ccccc1 (centres unmarked) [amphetamine] here?
**A.** 510 ± 30 µM

**Q.** What about the final body weight ([7]; bromocriptine 5-<10 mg/kg, 14 days, controls 44+/−1) of the same compound?
**A.** no effect

**Q.** What about the plasma triglyceride levels ([7]; bromocriptine 5-<10 mg/kg, 14 days, controls 175+/−21) of the same compound?
**A.** 70 ± 7 mg/dL

**Q.** What about the blood glucose ([7]; bromocriptine 5-<10 mg/kg, once daily 14 days, controls 422+/−46) of the same compound?
**A.** 348 ± 22 mg/dL

**Q.** What does the source list for Clc1cccc(Cl)c1NC1=NCCN1 [clonidine, 2-(2,6-dichloroanilino)-2-imidazoline]?
**A.** blood glucose [1]: 250 ± 35 mg/dL; body fat store level (intraabdominal fat pad) [8]: no effect

**Q.** For CCCCc1ccc(C(=O)O)nc1 [fusaric acid, 5-butyl-2-pyridinecarboxylic acid], which “retroperitoneal fat pad weight” value [6] is on record?
**A.** 735 ± 43 mg

**Q.** What about the plasma triglyceride level [6] of the same compound?
**A.** 170 ± 27 mg/dL

**Q.** What about the blood glucose [6] of the same compound?
**A.** 430 ± 30 mg/dL

**Q.** What about the blood glucose [9] of the same compound?
**A.** no significant effect

**Q.** What about the “change from baseline body weight (weight loss)” value ([5]; Q 0.075 mg/kg, 17 days) of the same compound?
**A.** modest if any effects

**Q.** And the blood glucose ([5]; relative to vehicle)?
**A.** reduced

**Q.** What about the “plasma C-reactive protein (CRP) levels” value [5, 11] of the same compound?
**A.** no significant effect

**Q.** What about the body weight [4] of the same compound?
**A.** not observed

**Q.** What about the plasma insulin levels [4, 10] of the same compound?
**A.** significantly higher
